Laboratory results published in patent publication US20180036355A1 (priority 2004, published 2018).

Tests used:
[1] = tested on: μ receptors for the opioids (MOR); assay: mRNA expression of the μ receptors for the opioids in epithelial cells stimulated by microorganisms (real-time PCR); assay type: cell-based
[2] = tested on: CB1 cannabinoid receptors; assay: mRNA expression of the CB1 receptors in epithelial cells stimulated by microorganisms (real-time PCR); assay type: cell-based
mu-opioid receptor (MOR) = tested on: mu-opioid receptor (MOR); set-up: species or system Balb/c mice; details: mouse, in vivo
CB2 receptors = assay: mRNA expression of the CB2 receptors in epithelial cells stimulated by microorganisms (real-time PCR); assay type: cell-based
MOR = MOR immunohistochemistry of colonic epithelial cells of mice; assay type: in vivo, Balb/c mice; details: mouse colon sections, 10^9 CFU once a day for fourteen days
IL-1β = assay: Colonic IL-1 beta mRNA expression in mice (real-time PCR); assay type: in vivo, Balb/c mice
KC = assay: Colonic KC mRNA expression in mice (real-time PCR); assay type: in vivo, Balb/c mice
CB1 = CB1 immunohistochemistry of colonic epithelial cells of mice; assay type: in vivo, Balb/c mice; details: mouse colon sections, 10^9 CFU once a day for fourteen days
TNFα = assay: Colonic TNF alpha mRNA expression in mice (real-time PCR); assay type: in vivo, Balb/c mice
CB2 = CB2 immunohistochemistry of colonic epithelial cells of mice; assay type: in vivo, Balb/c mice; details: mouse colon sections, 10^9 CFU once a day for fourteen days
[3] = Balb/c mice, oral 10^9 CFU during 15 days
[4] = mouse colon, 14 days of administration

Compound | effect of NFkappaB pathway inhibition on the expression of MOR ([1]; HT-29 cells pre-treated with CAPE, stimulated with L. acidophilus) | induction of the μ receptors for the opioids (in words) ([1]; ATCC HTB-38 epithelial cells (FIG. 1), comparator TNF-α 10 ng/ml) | increase in the basal expression level of the mRNA of the μ receptors for the opioids ([1]; ATCC HTB-38 epithelial cells, after 3 hours' incubation (FIG. 1)) | MOR expression in the epithelial cells (in words) ([1]; HT-29 or Caco-2 cells, 100 bacteria/cell, from the first hour of incubation) | increase in the basal expression level of the mRNA of CB1 ([2]; ATCC HTB-38 epithelial cells, after 3 hours' incubation (FIG. 2)) | CB1 expression ([2]; HT-29 or Caco-2 cells, 100 bacteria/cell, 0 to 6 hours, p<0.05) | increase of MOR mRNA expression in the colon vs untreated animals (mu-opioid receptor (MOR)) | expression of MOR mRNA at the colonic level (mu-opioid receptor (MOR); po) | increase in the basal expression level of the mRNA of the CB2 receptors (CB2 receptors; ATCC HTB-38 epithelial cells, after 3 hours' incubation (FIG. 3)) | CB2 expression (CB2 receptors; HT-29 or Caco-2 cells, 100 bacteria/cell, 0 to 6 hours, p<0.01) | epithelial stained cells for MOR (MOR) | diminution of the expression of colonic inflammatory cytokines (IL-1 beta) (IL-1β; [3]) | decreased expression of IL-1β mRNA level compared to controls (IL-1β; [4]) | diminution of the expression of colonic inflammatory cytokines (KC) (KC; [3]) | decreased expression of KC mRNA level compared to controls (KC; [4]) | epithelial stained cells for CB1 (CB1) | diminution of the expression of colonic inflammatory cytokines (TNF alpha) (TNFα; [3]) | decreased expression of TNFα mRNA level compared to controls (TNFα; [4]) | epithelial stained cells for CB2 (CB2)
O=C(/C=C/c1ccc(O)c(O)c1)OCCc1ccccc1 [CAPE, caffeic acid phenetyl ester, reference compound] | did not induce modifications of the expression of MOR | – | – | – | – | – | – | – | – | – | – | – | – | – | – | – | – | – | –
Lactobacillus acidophilus | – | of the same order of magnitude as that obtained by TNF-α | approximately 1000 fold | strong MOR expression | approximately 1000 fold | 848±180 | 24 fold | 24±0.75 | approximately 100 fold | 1498±333 | 60±10% | at least 50% | More than 50% | at least 50% | More than 50% | 60±8% | at least 50% | More than 50% | 40±7%
